The experiment has as its system H1N1 virus. The following applies: pH 4.9.

Where a SMILES comes first, the peptide text is derived from it.

With `CC[C@H](C)[C@H](NC(=O)[C@H](C)NC(=O)CNC(=O)[C@@H](N)CC(N)=O)C(=O)N[C@@H](CS)C(=O)N[C@@H](Cc1c[nH]c2ccccc12)C(=O)NCC(=O)N1CCC[C@H]1C(=O)N[C@@H](CS)C(=O)N1CCC[C@H]1C(=O)N[C@H](C(=O)N[C@@H](C)C(=O)N[C@@H](Cc1ccccc1)C(=O)N[C@@H](CCCNC(=N)N)C(=O)N[C@@H](CCC(N)=O)C(=O)N[C@H](C(=O)NCC(=O)N[C@@H](CC(N)=O)C(=O)N[C@@H](CS)C(=O)NCC(=O)N[C@@H](CCCNC(=N)N)C(=O)N[C@@H](Cc1ccccc1)C(=O)N[C@@H](CCCNC(=N)N)C(=O)N[C@H](C(=O)N[C@@H](CCCNC(=N)N)C(=O)N[C@@H](CS)C(=O)N[C@@H](CS)C(=O)N[C@@H](CCCNC(=N)N)C(=O)N[C@H](C(=O)N[C@@H](CCCNC(=N)N)C(=O)O)[C@@H](C)CC)C(C)C)[C@@H](C)CC)[C@@H](C)O` [P9R] (H-NGAICWGPCPTAFRQIGNCGRFRVRCCRIR-OH), the “inhibition of viral fusion (virus-induced hemolysis)” value is “did not inhibit viral fusion”.

These data come from paper PMC7447754 (Nature Communications, 2020).
